This is an account of results in US6825177B2, “Aryl phosphate derivatives of d4T with potent anti-viral activity” (Parker Hughes Institute, priority 2000, dated 2004).

Each structure is given as a SMILES string. Where two headings read alike, the source gives them in different places.

For data set [1] the following is noted: for effect of esterase inhibitor on decomposition of HI-113 in plasma: plasma pre-incubated with inhibitor at 37° C. for 30 minutes, 250 μM HI-113. The method, then: Plasma samples were pre-incubated with the esterase inhibitors paraoxon (final concentration of 0.1 mM), physostigmine (final concentration of 0.1 mM), and EDTA (final concentration of 1M) at 37° C. for 30 minutes. […] The data in Table 1 was the mean percent hydrolysis from two experiments.

A short description of data set [2]: Pharmacokinetics of d4T after intravenous d4T. The format is in vivo, Balb/c mice. The conditions noted are these: i.v. d4T 40 mg/kg.
Protocol: (§5) Female Balb/c mice (6-8 weeks old) from Taconic (Germantown, N.Y.) were housed in a controlled environment (12-hours of light/12-hours of dark, 22±1° C., 60±10% relative humidity), which is fully accredited by the USDA. All rodents were housed in microisolator cages (Lab Products, Inc., N.J.) containing autoclaved bedding. The mice were allowed free access to autoclaved pellet food and tap water throughout the study.
Blood samples (˜500 μL) were obtained from the ocular venous plexus by retro-orbital venipuncture at 0, 2, 5, 10, 15, 30, 45, 60, 120, 240 and 360 minutes after intravenous injection.
(§6) All collected blood samples were heparinized and centrifuged at 7000×g for 5 minutes to separate the plasma fraction from the whole blood. The plasma samples were then processed immediately using the extraction procedure described above.
Pharmacokinetic modeling and parameter calculations were carried out using the WinNonlin Professional Version 3.0 (Pharsight, Inc., Mountain, Calif.) pharmacokinetics software (Chen et al., Pharm. Res., 16, 1003 (1999); Chen et al., Pharm. Res., 16, 117 (1999); Chen et al., J. Clin. Pharmacol., 39, 1248 (1999); Uckun et al., Clin. Cancer Res., 5, 2954 (1999); and Uckun et al., J. Pharmacol. Exp. Ther., 291, 1301 (1999)). An appropriate model was chosen on the basis of the lowest sum of weighted squared residuals, the lowest Schwartz Criterion (SC), the lowest Akaike's Information Criterion (AIC) value, the lowest standard errors of the fitted parameters, and the dispersion of the residuals. The elimination half-life was estimated by linear regression analysis of the terminal phase of the plasma concentration-time profile. The area under the concentration-time curve (AUC) was calculated according to the linear trapezoidal rule between the first sampling time (0 hours) and the last sampling time plus C/k, where C is the concentration of the last sampling and k is the elimination rate constant. The systemic clearance (CL) was determined by dividing the dose by the AUC. The metabolic clearance of the parent drug, the formation clearance of the metabolite, the clearance elimination of the metabolite, and the distribution clearance of the metabolite were estimated by simultaneous fitting of the concentration of parent drug and metabolites as a function of time curve to pharmacokinetic models (see FIGS. 7A & 8A) specified as a system of differential equations (Gabrielsson & Weiner, Phamacokinetic/Phamacodynamic Data Analysis: Concepts and Applications, Swedish Pharmaceutical Press (1997)).
Data set [3] is described as follows: Pharmacokinetics of Ala-d4T-MP and its metabolite after intravenous Ala-d4T-MP. Format: in vivo, Balb/c mice.
Protocol: as §5
Blood samples (˜500 μL) were obtained from the ocular venous plexus by retro-orbital venipuncture at 0, 2, 5, 10, 15, 30, 45, 60, 120, 240 and 360 minutes after intravenous injection. […]
Pharmacokinetic modeling and parameter calculations were carried out using the WinNonlin Professional Version 3.0 (Pharsight, Inc., Mountain, Calif.) pharmacokinetics software (Chen et al., Pharm. Res., 16, 1003 (1999); Chen et al., Pharm. Res., 16, 117 (1999); Chen et al., J. Clin. Pharmacol., 39, 1248 (1999); Uckun et al., Clin. Cancer Res., 5, 2954 (1999); and Uckun et al., J. Pharmacol. Exp. Ther., 291, 1301 (1999)). […] The area under the concentration-time curve (AUC) was calculated according to the linear trapezoidal rule between the first sampling time (0 hours) and the last sampling time plus C/k, where C is the concentration of the last sampling and k is the elimination rate constant. The systemic clearance (CL) was determined by dividing the dose by the AUC. […]
Data set [4] in a line: Pharmacokinetics of HI-113 and its metabolites after intravenous HI-113.
Protocol: as §5, §6
An appropriate model was chosen on the basis of the lowest sum of weighted squared residuals, the lowest Schwartz Criterion (SC), the lowest Akaike's Information Criterion (AIC) value, the lowest standard errors of the fitted parameters, and the dispersion of the residuals. The elimination half-life was estimated by linear regression analysis of the terminal phase of the plasma concentration-time profile. […] The systemic clearance (CL) was determined by dividing the dose by the AUC.
Data set [5] in a line: Stability of HI-113 and Ala-d4T-MP in plasma. The format is in vitro ADME. The settings on record: for stability in plasma: 250 μM HI-113, 100 μM Ala-d4T-MP. From the text:
(§1) The HPLC system used for these studies was a Hewlett Packard (Palo Alto, Calif.) series 1100 instrument equipped with a quaternary pump, an autosampler, an automatic electronic degasser, an automatic thermostatic column compartment, a diode array detector and a computer with Chemstation software for data analysis (Chen et al., J. Chromatogr. B., 724, 157 (1999); Chen et al., J. Chromatogr. B., 727, 205 (1999); and Chen et al., J. Liq. Chromatogr., 22, 1771 (1999)). The analytical column used was a Zobax SB-Phenyl (5 μm, Hewlett Packard, Inc.) column attached to a guard column (Hewlett Packard, Inc.). The column was equilibrated prior to data collection. […] The detection wavelength was 268 nm, the peakwidth was less than 0.03 minutes, the response time was 0.5 seconds, and the slit was 4 nm.
(§2) Plasma samples (200 μL) were mixed 1:4 with acetone (800 μL) and vortexed for at least 30 seconds. Following centrifugation, the supernatant was transferred into a clean tube and was dried under nitrogen. A 50 μL solution of 50% methanol in 200 mM HCl was used to reconstitute the extraction residue, and 40 μL was injected into the HPLC.
(§3) The whole blood samples were placed in a 37° C. water bath, while plasma samples were stored at −20° C. At a predetermined time, an aliquot (100 μl) of spiked whole blood or plasma was extracted by adding 400 μl of acetone to induce precipitation of proteins, as described above.

The nature of data set [6]: Stability in simulated gastric fluid. The format is in vitro ADME. The conditions noted are these: 100 μM, 37° C. As for the experimental part:
(§4) The spiked fluids were then placed in a 37° C. water bath. At a predetermined time, 100 μl aliquots of the spiked gastric or intestinal fluid were extracted by adding 400 μl of acetone as discussed above.

Data set [7] in a line: Stability of HI-113 and Ala-d4T-MP in whole blood. Format: in vitro ADME. The conditions noted are these: 37° C.; for stability in whole blood: 250 μM HI-113, 100 μM Ala-d4T-MP.
From the text: as §1, §2, §3

The next data set deals with HIV-2. The conditions noted are these: PBMNC; cited from earlier work.
The nature of data set [8]: Pharmacokinetics after oral administration of HI-113. The format is in vivo, Balb/c mice.
Protocol: Female Balb/c mice (6-8 weeks old) from Taconic (Germantown, N.Y.) were housed in a controlled environment (12-hours of light/12-hours of dark, 22±1° C., 60±10% relative humidity), which is fully accredited by the USDA. All rodents were housed in microisolator cages (Lab Products, Inc., N.J.) containing autoclaved bedding. The mice were allowed free access to autoclaved pellet food and tap water throughout the study. All animal care procedures conformed to the Guide for the Care and Use of Laboratory Animals (National Research Council, National Academy Press, Washington D.C. 1996).
Sampling time points were 0, 2, 5, 10, 15, 30, 45, 60, 120, 240 and 360 minutes after the gavage. […]
Pharmacokinetic modeling and parameter calculations were carried out using the WinNonlin Professional Version 3.0 (Pharsight, Inc., Mountain, Calif.) pharmacokinetics software (Chen et al., Pharm. Res., 16, 1003 (1999); Chen et al., Pharm. Res., 16, 117 (1999); Chen et al., J. Clin. Pharmacol., 39, 1248 (1999); Uckun et al., Clin. Cancer Res., 5, 2954 (1999); and Uckun et al., J. Pharmacol. Exp. Ther., 291, 1301 (1999)). […] The area under the concentration-time curve (AUC) was calculated according to the linear trapezoidal rule between the first sampling time (0 hours) and the last sampling time plus C/k, where C is the concentration of the last sampling and k is the elimination rate constant. […]
The nature of data set [9]: Stability of HI-113 in murine liver homogenates. The settings on record: 100 μM. The format is in vitro ADME, Balb/c mice. The method, then:
Fresh mouse liver was obtained from Balb/c mice and homogenated in 1×PBS (1:1, W/V) using a Polytron (PT-MR2000) homogenizer (Kinematical AG, Littau, Switzerland). […] At a predetermined time, an aliquot (100 μl) of spiked liver homogenate was extracted by adding 400 μl of acetone to induce precipitation of proteins, as described above.

Data set [10] relates to zidovudine (ZVD/AZT)-resistant HIV-1 strains. The conditions noted are these: PBMNC; cited from earlier work.
Data set [11] is described as follows: Stability in simulated intestinal fluid. The format is in vitro ADME. The conditions noted are these: 100 μM, 37° C. As for the experimental part:
as §4

In data set [12] the test system is HIV replication in human peripheral blood mononuclear cells (PBMNC). The conditions noted are these: compared with d4T; cited from earlier work.
For data set [13], the system named is HIV replication in thymidine kinase-deficient T-cells. The settings on record: compared with d4T; cited from earlier work.
Where [14] appears, read: plasma, estimated from composite curve of pooled data.
The mark [15] stands for this setting: i.v. HI-113 100 mg/kg, plasma, estimated from composite curve of pooled data.
Where [16] appears, read: i.v. HI-113 100 mg/kg, mean ± S.E.M.

As to `CCOP(=O)(OCC)Oc1ccc([N+](=O)[O-])cc1` [paraoxon, reference compound], the “effect of esterase inhibitor on decomposition of HI-113 in plasma” value in data set [1] is “significantly inhibited”.

For `O=C(O)CN(CCN(CC(=O)O)CC(=O)O)CC(=O)O` [EDTA, reference compound], the “effect of esterase inhibitor on decomposition of HI-113 in plasma” value in [1] was “not affected”.

One may read the AUC as the area under the concentration-time curve, a measure of exposure. As to `Cc1cn([C@H]2C=C[C@@H](CO)O2)c(=O)[nH]c1=O` [d4T, 2′,3′-didehydro-2′,3′-dideoxythymidine], in [2] (setting [14]), the AUC was 12227.1 µM·min, the CL is 15.0 mL/min/kg, the VSS is 0.6578 L/kg and the t1/2 is 0.505 h. In data set [2] (mean ± S.E.M), the CL result is on record as “(15.2 ± 0.7) ml/min/kg”, the VSS entry was “(581.8 ± 62.8) ml/kg” and the t1/2 entry is “(26.6 ± 1.2) min”. In data set [3] (female, Balb/c, mouse, in vivo, iv), the “formation of d4T from intravenously administered Ala-d4T-MP (fraction converted)” value came to 15%. In addition, in [4] (setting [15]), the t1/2 was 1.913 h.

As for `COC(=O)C(C)NP(=O)(OC[C@@H]1C=C[C@H](n2cc(C)c(=O)[nH]c2=O)O1)Oc1ccc(Br)cc1` (stereo partly shown) [HI-113, d4T-5′-[p-bromophenylmethoxyalaninyl phosphate]], in data set [5] (250 μM), the “time until decomposition was complete in plasma” value is ≤ 30 min. Besides, in data set [5], the “stability in plasma” value was “very unstable”. Also, the “HI-113 decomposed following incubation with plasma” value in data set [5] (after 5 minutes, 250 μM) was “over 95%”. Further, the “stability in gastric fluid” value in data set [6] is “relatively stable in gastric fluid for 8 hours”. In [7], the “stability in whole blood” value is “very unstable”. Also, the “time until decomposition was complete in whole blood” value in data set [7] (250 μM) was ≤ 30 min. The “HI-113 decomposed in whole blood” value in data set [7] (5 minutes, 250 μM) came out at 68%; in data set [7] (10 minutes, 250 μM) it was 87%; in [7] (15 minutes, 250 μM), 92%. In addition, the “concentration inhibiting replication of HIV-2” value with HIV-2 is given as “nanomolar concentrations”. In addition, the “plasma concentration of the parent compound (below the detection limit)” value in data set [8] (oral HI-113 100 mg/kg) was < 500 nM. The “time within which HI-113 decomposed in liver homogenate” value in data set [9] is ≤ 30 min. For the same molecule, the “concentration inhibiting replication of zidovudine (ZVD/AZT)-resistant HIV-1 strains” value in data set [10] is “nanomolar concentrations”. Further, the “stability in intestinal fluid” value in data set [11] was “not stable”. For the same molecule, the “HI-113 decomposed in intestinal fluid” value in data set [11] (within 2 hours) is recorded as “approximately 94%”. In addition, the “potency in inhibiting HIV replication” value in data set [12] and in [13] was “substantially more potent than d4T” each time. Besides, the VSS is 0.8199 L/kg in [4] (setting [15]) and “(920 ± 127.4) ml/kg” in data set [4] (setting [16]). In addition, in data set [4] (setting [16]), the CL result is on record as “(174.5 ± 13.2) ml/min/kg”. For the same molecule, the “percent hydrolysis of HI-113 in plasma” value was found to be 100% in [1] (EDTA (1 mM), 10 min); 100% in data set [1] (EDTA (1 mM), 15 min); 100% in [1] (EDTA (1 mM), 30 min); 100% in [1] (EDTA (1 mM), 60 min); 100% in [1] (EDTA (1 mM), 120 min); 99% in data set [1] (EDTA (1 mM), arylesterase, 5 min). Further, the “percent hydrolysis of HI-113 in plasma” value in data set [1] (Paraoxon (0.1 mM), 10 min) was 2%; in data set [1] (Paraoxon (0.1 mM), 15 min) it was 2%; in data set [1] (Paraoxon (0.1 mM), 30 min), 2%; in [1] (Paraoxon (0.1 mM), 60 min) it was 3%; in data set [1] (Paraoxon (0.1 mM), 120 min) it was 24%; in data set [1] (Paraoxon (0.1 mM), cholinesterase & carboxylesterase, 5 min) it was 0%. The “percent hydrolysis of HI-113 in plasma” value in data set [1] (Physostigmine (0.1 mM), 10 min) is 65%; in data set [1] (Physostigmine (0.1 mM), 15 min), 76%; in data set [1] (Physostigmine (0.1 mM), 30 min), 89%; in data set [1] (Physostigmine (0.1 mM), 60 min) it was 100%; in [1] (Physostigmine (0.1 mM), 120 min) it was 100%; in [1] (Physostigmine (0.1 mM), cholinesterase, 5 min), 43%. Further, the “percent hydrolysis of HI-113 in plasma” value in [1] (no inhibitor, 5 min, 250 μM HI-113, mean of two experiments) worked out at 95%; in data set [1] (no inhibitor, 10 min) it was 98%; in [1] (no inhibitor, 15 min), 99%; in data set [1] (no inhibitor, 30 min), 100%; in data set [1] (no inhibitor, 60 min), 100%; in data set [1] (no inhibitor, 120 min), 100%.

With `Cc1cn([C@H]2C=C[C@@H](COP(=O)(O)NC(C)C(=O)O)O2)c(=O)[nH]c1=O` (stereo partly shown) [Ala-d4T-MP, alaninyl-d4T-monophosphate], the “stability in plasma” value in data set [5] was “stable in both whole blood and plasma for 1 day”. Moreover, in data set [7], the “stability in whole blood” value is “stable in both whole blood and plasma for 1 day”. Moreover, in data set [8] (after oral administration of HI-113), the “estimated bioavailability of the metabolite” value is reported as “approximately 12%”. Moreover, in [11], the “stability in intestinal fluid” value is on record as “stable”. For the same molecule, the “CLm1 as share of the total systemic clearance” value in data set [3] (i.v. Ala-d4T-MP) was determined as 99%. In data set [4] (after intravenous HI-113), the “fraction of HI-113 converted to the metabolite” value is reported as 23%.
